# Measurements from US20260035459A1, “HUMANIZED CHIMERIC ANTIGEN RECEPTORS TARGETING THE B-CELL RECEPTOR OF CHRONIC LYMPHOCYTIC LEUKEMIA AND USES THEREOF” (AVA LIFESCIENCE GMBH, priority 2022, published 2026).
# Key:
# OCI-Ly1_R110 cells = type: cell-based; settings: human, 24 h
# Experimental: (§1) The graph depicts a titration of ibrutinib to determine toxicity towards OCI-Ly1 cell models upon administration of serial dilutions of ibrutinib (11 steps, ranges 0.01 to 20 μM) to OCI-Ly1 wt or OCI-Ly1_R110 cells for 24 hours. Cell growth in percent was plotted as total numbers of ibrutinib-treated cells relative to the total number of untreated cells. […] This dose was thus chosen for further testing of CAR T efficacy.
# (§2) Coadministration of BTK-inhibitors like ibrutinib-a BTK/ITK inhibitor known to restore T cell functionality—to CAR T cell can have additive anti-tumor effects. To test this in the R110 CAR T setting, ibrutinib toxicity for OCI-Ly1 target cells was assessed first. For this, 2×10^4 OCI-Ly1 wt and OCI-Ly1_R110 cells were seeded in 200 μl culture media supplemented with serial dilutions of ibrutinib (PCI-32765, Selleck Chemicals, Cat. S2680) ranging from 0.01 to 20 μM. Cells grown under the same conditions without ibrutinib served as control. After 24h incubation, viable (trypan blue exclusion) cells were counted using the Vi-CELL XR system (Beckman Coulter). Cell growth in percent was then plotted as total numbers of ibrutinib-treated cells relative to the total number of untreated cells (FIG. 10). […] This dose was thus chosen for further testing of CAR T efficacy.
# OCI-Ly1 wt cells = type: cell-based; settings: human, 24 h
# Experimental: as §1, §2
smiles,measurement,setting,value
C=CC(=O)N1CCC[C@@H](n2nc(-c3ccc(Oc4ccccc4)cc3)c3c(N)ncnc32)C1 [ibrutinib],highest dose that does not result in a viability drop of target cells,OCI-Ly1_R110 cells,0.08 UM
same,highest dose that does not result in a viability drop of target cells,OCI-Ly1 wt cells,0.08 UM
